# US20250230193A1, “CYCLIC COMPOUND HAVING SELECTIVE KRAS INHIBITORY EFFECT ON HRAS AND NRAS” (CHUGAI SEIYAKU KABUSHIKI KAISHA, priority 2022, published 2025)
# Columns and labels:
# [1] = molecular target: GDP-bound NRAS wild-type protein (Homo sapiens, UniProt P01111); experiment: Binding to NRAS by surface plasmon resonance (SPR), Single Cycle Kinetics
# [2] = molecular target: GDP-bound HRAS wild-type protein (Homo sapiens, UniProt P01112); experiment: Binding to HRAS by surface plasmon resonance (SPR), Single Cycle Kinetics
# [3] = KD ratio, GDP-bound NRAS wild-type vs GDP-bound KRAS wild-type, SPR
# [4] = KD ratio, GDP-bound HRAS wild-type vs GDP-bound KRAS wild-type, SPR
# GDP-bound HRAS wild-type protein, sequence (P01112 whole entry): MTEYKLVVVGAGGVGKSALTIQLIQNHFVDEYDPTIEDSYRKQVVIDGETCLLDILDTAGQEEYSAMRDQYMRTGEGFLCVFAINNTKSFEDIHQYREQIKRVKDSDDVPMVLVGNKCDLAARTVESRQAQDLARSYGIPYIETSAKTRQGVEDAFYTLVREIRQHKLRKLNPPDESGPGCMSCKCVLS
# GDP-bound NRAS wild-type protein, sequence (P01111 whole entry): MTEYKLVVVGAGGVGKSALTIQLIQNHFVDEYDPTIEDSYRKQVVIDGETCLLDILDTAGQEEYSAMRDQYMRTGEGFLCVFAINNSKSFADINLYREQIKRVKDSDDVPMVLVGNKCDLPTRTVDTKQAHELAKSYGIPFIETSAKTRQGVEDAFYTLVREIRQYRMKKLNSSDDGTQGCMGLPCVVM
compound,measurement,setting,value
CCO[C@@H]1C[C@H]2C(=O)NC3(CC(C)(C)C3)C(=O)N(C)[C@@H](C3CCCC3)C(=O)N(C)[C@H](C(=O)N(C)C)CC(=O)N(C)[C@@H](CC3CCC3)C(=O)N[C@@H]([C@@H](C)CC)C(=O)N(C)CC(=O)N(C)[C@H]3C/C=C\CCN(C3=O)[C@@H](Cc3ccc(C(F)(F)F)cc3)C(=O)N(C)CC(=O)N[C@@H](CCc3ccc(C(F)(F)F)c(Cl)c3)C(=O)N2C1 [PP1752],NRAS/KRAS (ratio of KD value for NRAS to KD value for KRAS),[1]; [3],A (a compound having 10 or more and less than 20 is denoted as A)
same,HRAS/KRAS (ratio of KD value for HRAS to KD value for KRAS),[2]; [4],A (a compound having 10 or more and less than 20 is denoted as A)
CCOC[C@H]1C(=O)N[C@@H]([C@@H](C)CC)C(=O)N(C)CC(=O)N(C)[C@H]2C/C=C\CCN(C2=O)[C@@H](CC2CCC(F)(F)CC2)C(=O)N(C)CC(=O)N[C@@H](CCc2ccc(C(F)(F)F)c(OC)c2)C(=O)N2C[C@@H](C)C[C@H]2C(=O)NC2(CC(C)(C)C2)C(=O)N(C)[C@@H](C(CC)CC)C(=O)N(C)[C@H](C(=O)N(C)C)CC(=O)N1C [PP2458],NRAS/KRAS (ratio of KD value with respect to NRAS to KD value with respect to KRAS),"[1]; SPR, GDP-bound NRAS wild-type vs GDP-bound KRAS wild-type",A (a compound having 10 or more and less than 20 is denoted as A)
same,HRAS/KRAS (ratio of KD value with respect to HRAS to KD value with respect to KRAS),"[2]; SPR, GDP-bound HRAS wild-type vs GDP-bound KRAS wild-type",A (a compound having 10 or more and less than 20 is denoted as A)
CCO[C@@H]1C[C@H]2C(=O)NC3(CCC3)C(=O)N(C)[C@@H](C3CCCC3)C(=O)N(C)[C@H](C(=O)N(C)C)CC(=O)N(C)[C@@H](COC)C(=O)N[C@@H]([C@@H](C)CC)C(=O)N(C)CC(=O)N(C)[C@H]3CCCCN(C3=O)[C@@H](Cc3ccc(C(F)(F)F)cc3)C(=O)N(C)CC(=O)N[C@@H](CCc3cc(F)c(C(F)(F)F)c(F)c3)C(=O)N2C1 [PP0704],NRAS/KRAS (ratio of KD value with respect to GDP-bound NRAS wild-type protein to KD value with respect to KRAS),[1]; SPR,C (A compound having a KD ratio of 0.1 or more and less than 3 is denoted as C)
same,HRAS/KRAS (ratio of KD value with respect to GDP-bound HRAS wild-type protein to KD value with respect to KRAS),[2]; SPR,C (A compound having a KD ratio of 0.1 or more and less than 3 is denoted as C)
CC[C@H](C)[C@@H]1NC(=O)[C@H](Cc2ccccc2)N(C)C(=O)C[C@@H](C(=O)N2CCOCC2)N(C)C(=O)[C@H](C2CCCC2)N(C)C(=O)C2(CCCC2)NC(=O)[C@@H]2CCCN2C(=O)[C@H](CCc2ccc(C(F)(F)F)c(Cl)c2)NC(=O)CN(C)C(=O)[C@H](Cc2ccc(F)cc2)N2CCCCC[C@@H](C2=O)N(C)C(=O)CN(C)C1=O [PP0961],NRAS/KRAS (ratio of KD value with respect to NRAS to KD value with respect to KRAS),[1]; [3],B (a compound having 3 or more and less than 10 is denoted as B)
same,HRAS/KRAS (ratio of KD value with respect to HRAS to KD value with respect to KRAS),[2]; [4],B (a compound having 3 or more and less than 10 is denoted as B)
CCO[C@@H]1C[C@H]2C(=O)NC3(CCC3)C(=O)N(C)[C@@H](C3CCCC3)C(=O)N(C)[C@H](C(=O)N3CCOCC3)CC(=O)N(C)[C@@H](Cc3cccs3)C(=O)N[C@@H]([C@@H](C)CC)C(=O)N(C)CC(=O)N(C)[C@H]3CCCCCN(C3=O)[C@@H](Cc3ccc(F)cc3)C(=O)N(C)CC(=O)N[C@@H](CCc3cc(F)c(C(F)(F)F)c(F)c3)C(=O)N2C1 [PP1183],NRAS/KRAS (ratio of KD value with respect to NRAS to KD value with respect to KRAS),[1]; [3],B (a compound having 3 or more and less than 10 is denoted as B)
same,HRAS/KRAS (ratio of KD value with respect to HRAS to KD value with respect to KRAS),[2]; [4],B (a compound having 3 or more and less than 10 is denoted as B)
"CCO[C@@H]1C[C@H]2C(=O)NC3(CCCC3)C(=O)N(C)[C@@H](C3CCCC3)C(=O)N(C)[C@H](C(=O)N(C)CC)CC(=O)N(C)[C@@H](CC(C)C)C(=O)N[C@@H]([C@@H](C)CC)C(=O)N(C)CC(=O)N(C)[C@H]3C/C=C\CCN(C3=O)[C@@H](Cc3ccc(C(F)(F)F)cc3)C(=O)N(C)CC(=O)N[C@@H](CCc3cc(F)c(C(F)(F)F)c(F)c3)C(=O)N2C1 [PP1574, (2S,8S,12R,14S,20S,23S,27S,30S,36S,38Z)-20-cyclopentyl-8-[2-[3,5-difluoro-4-(trifluoromethyl)phenyl]ethyl]-12-ethoxy-N-ethyl-27-isobutyl-N,4,19,22,26,32,35-heptamethyl-30-[(1S)-1-methylpropyl]-3,6,9,15,18,21,25,28,31,34,42-undecaoxo-2-[[4-(trifluoromethyl)phenyl]methyl]spiro[1,4,7,10,16,19,22,26,29,32,35-undecazatricyclo[34.5.1.0^10,14]dotetracont-38-ene-17,1′-cyclopentane]-23-carboxamide]",NRAS/KRAS (ratio of KD value for GDP-bound NRAS wild-type protein to KD value for KRAS),"[1]; SPR, KD ratio class",A (a compound having 10 or more and less than 20 is denoted as A)
same,HRAS/KRAS (ratio of KD value for GDP-bound HRAS wild-type protein to KD value for KRAS),"[2]; SPR, KD ratio class",A (a compound having 10 or more and less than 20 is denoted as A)
CCC[C@H]1C(=O)N[C@@H]([C@@H](C)CC)C(=O)N(C)CC(=O)N(C)[C@H]2C/C=C\CCN(C2=O)[C@@H](Cc2ccc(C)cc2)C(=O)N(C)CC(=O)N[C@@H](CCc2ccc(Cl)c(Cl)c2)C(=O)N2C[C@H](OC(C)C)C[C@H]2C(=O)NC2(CC(C)(C)C2)C(=O)N(C)[C@@H](C(CC)CC)C(=O)N(C)[C@H](C(=O)N(C)C)CC(=O)N1C [PP2537],NRAS/KRAS (ratio of KD value with respect to GDP-bound NRAS wild-type protein to KD value with respect to KRAS),[1]; class symbols,AA (a compound having 20 or more is denoted as AA)
same,HRAS/KRAS (ratio of KD value with respect to GDP-bound HRAS wild-type protein to KD value with respect to KRAS),[2]; class symbols,A (a compound having 10 or more and less than 20 is denoted as A)
